Experimental data taken from PubChem BioAssay AID1845197 (Molecular Pharmacology Branch, DTP, NCI, 2023).
pIC50: −log10 of the molar value. Where “and” joins values, the source holds several entries; their conditions need not be identical. Equal entries are not always repeated.

Test system: 349418-098-R tumor spheroid viability
Test: Anticancer human tumor 349418-098-R patient-derived lung adenocarcinoma cell line growth inhibition
Conditions: spheroids with HUVEC and MSC; for viability, T/C: stronger effect = lower value
Method in brief: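 Complex spheroids of malignant cells with endothelial cells and mesenchymal stem cells; agents alone or combined, from near clinical Cmax (or 10 microM if unknown) down in half-log steps, 0.25% DMSO final.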
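Note: spheroids exposed to compound for 7 days before measurement.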
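Throughout, for viability, T/C: percent of vehicle control viability with 100% = DMSO-treated spheroids.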

CC(C)n1c(=O)n(C)c2cnc3cc(F)c(-c4ccc(OCCCN5CCCCC5)nc4)cc3c21 + COc1cc2c(cc1O)CCNC21CSC2c3c(OC(C)=O)c(C)c4c(c3C(COC1=O)N1C(O)C3Cc5cc(C)c(OC)c(O)c5C(C21)N3C)OCO4
pIC50 (curve of first compound, second compound 30 pM): < 5.00 | pIC50 (curve of first compound, second compound 94.9 pM): < 5.00 | pIC50 (curve of first compound, second compound 0.0003 µM): > 7.50 | pIC50 (curve of first compound, second compound 0.000949 µM): > 7.50 | pIC50 (curve of first compound, second compound 0.003 µM): > 7.50 | viability, T/C (second compound 30 pM, first compound 0.0316 µM): 91.8% | viability, T/C (second compound 30 pM, first compound 0.1 µM): 97.4% | viability, T/C (second compound 30 pM, first compound 0.316 µM): 106% | viability, T/C (second compound 30 pM, first compound 1 µM): 99.6% | viability, T/C (second compound 30 pM, first compound 3.16 µM): 98.4% | viability, T/C (second compound 30 pM, first compound 10 µM): 77.7% | viability, T/C (second compound 94.9 pM, first compound 0.0316 µM): 91.5% | viability, T/C (second compound 94.9 pM, first compound 0.1 µM): 85% | viability, T/C (second compound 94.9 pM, first compound 0.316 µM): 93% | viability, T/C (second compound 94.9 pM, first compound 1 µM): 92.7% | viability, T/C (second compound 94.9 pM, first compound 3.16 µM): 94.6% | viability, T/C (second compound 94.9 pM, first compound 10 µM): 60.2% | viability, T/C (second compound 0.0003 µM, first compound 0.0316 µM): 40.2% | viability, T/C (second compound 0.0003 µM, first compound 0.1 µM): 37% | viability, T/C (second compound 0.0003 µM, first compound 0.316 µM): 31.7% | viability, T/C (second compound 0.0003 µM, first compound 1 µM): 32.1% | viability, T/C (second compound 0.0003 µM, first compound 3.16 µM): 45.2% | viability, T/C (second compound 0.0003 µM, first compound 10 µM): 22.1% | viability, T/C (second compound 0.000949 µM, first compound 0.0316 µM): 0.4% | viability, T/C (second compound 0.000949 µM, first compound 0.1 µM): 0.3% | viability, T/C (second compound 0.000949 µM, first compound 0.316 µM): 0.49% | viability, T/C (second compound 0.000949 µM, first compound 1 µM): 1.21% | viability, T/C (second compound 0.000949 µM, first compound 3.16 µM): 1.2% | viability, T/C (second compound 0.000949 µM, first compound 10 µM): 0.62% | viability, T/C (second compound 0.003 µM, first compound 0.0316 µM): 1.38% | viability, T/C (second compound 0.003 µM, first compound 0.1 µM): 1.4% | viability, T/C (second compound 0.003 µM, first compound 0.316 µM): 1.38% | viability, T/C (second compound 0.003 µM, first compound 1 µM): 1.37% | viability, T/C (second compound 0.003 µM, first compound 3.16 µM): 1.41% | viability, T/C (second compound 0.003 µM, first compound 10 µM): 1.51%

CC1COCCN1c1cc(-c2ccnn2C)c2ccnc(-c3ccn[nH]3)c2n1 (stereo unspecified)
viability, T/C (compound 0.0316 µM): 90.1% and 88.7% and 108% | viability, T/C (compound 0.1 µM): 48.2% and 41.8% and 114% | viability, T/C (compound 0.316 µM): 14.5% and 13% and 23.9% | viability, T/C (compound 1 µM): 11.7% and 10.5% and 18.3% | viability, T/C (compound 3.16 µM): 12.6% and 11.9% and 16.4% | viability, T/C (compound 10 µM): 11.6% (2×) and 11.7% | pIC50 (curve of compound): 7.02 and 7.09 and 6.65

COc1ccc([C@@H](O)c2cc(-c3ncnc4cc(N5CCOCC5)ccc34)c(F)cc2Cl)nn1
viability, T/C (compound 0.0316 µM): 106% and 101% and 93.8% | viability, T/C (compound 0.1 µM): 97.6% and 102% and 111% | viability, T/C (compound 0.316 µM): 105% and 103% and 114% | viability, T/C (compound 1 µM): 112% and 102% and 111% | viability, T/C (compound 3.16 µM): 88% and 62.7% and 101% | viability, T/C (compound 10 µM): 30.2% and 29% and 33.6% | pIC50 (curve of compound): 5.17 and 5.31 and 5.12

CNCc1ccc(-c2cc(-c3nc(-c4ccc(S(=O)(=O)C(C)C)cc4)cnc3N)on2)cc1
viability, T/C (compound 0.00949 µM): 99.8% and 99.6% and 96.2% | viability, T/C (compound 0.03 µM): 104% and 99.5% and 92.1% | viability, T/C (compound 0.0949 µM): 94.8% and 98.9% and 94.1% | viability, T/C (compound 0.3 µM): 71.1% and 34.7% and 85.6% | viability, T/C (compound 0.949 µM): 8.67% and 9.93% and 16.6% | viability, T/C (compound 3 µM): 2.53% and 1.43% and 6.14% | pIC50 (curve of compound): 6.35 and 6.64 and 6.26

CC1COCCN1c1cc(-c2ccnn2C)c2ccnc(-c3ccn[nH]3)c2n1 (stereo unspecified) + Cn1nnc2c(C(N)=O)ncn2c1=O
pIC50 (curve of first compound, second compound 1 µM): 7.18 | pIC50 (curve of first compound, second compound 3.16 µM): 7.19 | pIC50 (curve of first compound, second compound 10 µM): 7.21 | pIC50 (curve of first compound, second compound 31.6 µM): 7.17 | pIC50 (curve of first compound, second compound 100 µM): 7.28 | viability, T/C (second compound 1 µM, first compound 0.0316 µM): 90.2% | viability, T/C (second compound 1 µM, first compound 0.1 µM): 27.8% | viability, T/C (second compound 1 µM, first compound 0.316 µM): 11.8% | viability, T/C (second compound 1 µM, first compound 1 µM): 11.1% | viability, T/C (second compound 1 µM, first compound 3.16 µM): 11.1% | viability, T/C (second compound 1 µM, first compound 10 µM): 10.9% | viability, T/C (second compound 3.16 µM, first compound 0.0316 µM): 90.5% | viability, T/C (second compound 3.16 µM, first compound 0.1 µM): 24.4% | viability, T/C (second compound 3.16 µM, first compound 0.316 µM): 12.5% | viability, T/C (second compound 3.16 µM, first compound 1 µM): 10.3% | viability, T/C (second compound 3.16 µM, first compound 3.16 µM): 11.1% | viability, T/C (second compound 3.16 µM, first compound 10 µM): 10.4% | viability, T/C (second compound 10 µM, first compound 0.0316 µM): 90.7% | viability, T/C (second compound 10 µM, first compound 0.1 µM): 20% | viability, T/C (second compound 10 µM, first compound 0.316 µM): 11.9% | viability, T/C (second compound 10 µM, first compound 1 µM): 9.88% | viability, T/C (second compound 10 µM, first compound 3.16 µM): 11.1% | viability, T/C (second compound 10 µM, first compound 10 µM): 9.65% | viability, T/C (second compound 31.6 µM, first compound 0.0316 µM): 91.9% | viability, T/C (second compound 31.6 µM, first compound 0.1 µM): 28.8% | viability, T/C (second compound 31.6 µM, first compound 0.316 µM): 10.5% | viability, T/C (second compound 31.6 µM, first compound 1 µM): 9.5% | viability, T/C (second compound 31.6 µM, first compound 3.16 µM): 11.8% | viability, T/C (second compound 31.6 µM, first compound 10 µM): 10.2% | viability, T/C (second compound 100 µM, first compound 0.0316 µM): 77.9% | viability, T/C (second compound 100 µM, first compound 0.1 µM): 14.8% | viability, T/C (second compound 100 µM, first compound 0.316 µM): 9.79% | viability, T/C (second compound 100 µM, first compound 1 µM): 9.43% | viability, T/C (second compound 100 µM, first compound 3.16 µM): 9.05% | viability, T/C (second compound 100 µM, first compound 10 µM): 9.14%
